From PMC10688161 (ACS Omega, 2023)

Molecular target: SARS-CoV-2 M^pro (3CL^pro), MBP-tagged 3CL protease (Severe acute respiratory syndrome coronavirus 2, UniProt P0DTD1)
Test: biochemical

**Q.** For `O=C(O)c1cc(C(=O)O)c2c(n1)C(=O)C(=O)c1cc(C(=O)O)[nH]c1-2` [PQQ, 4,5-dioxo-4,5-dihydro-1H-pyrrolo[2,3-f] quinoline-2,7,9-tricarboxylic acid], which IC50 is on record?
**A.** The IC50 was 2800 nM.
